Read-outs that look alike come from different tables or passages of the source. Some results are limits rather than exact numbers.

For one assay, the system named is Erk1/2 phosphorylation. The assay is described as follows: Erk1/2 Phosphorylation Assay (western blot), Panc-1. The class given is cell-based, human. The note with it: at 10 μM, * = activation. In a few lines:
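Phospho-Erk1/2 (Thr202/Tyr204) was detected by western blot in lysates of Panc-1 cells (KRas G12D). These had 6 h, 37° C exposure to 10 μM compound or a dilution series for IC50, in 0.3% DMSO. Cells were either starved overnight in 0.5% FBS with a 15-min 1.5 ng/ml EGF pulse, or kept unstimulated in 10% FBS.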
Background: In western blotting, separated proteins are transferred to a membrane and probed.

The subject of assay [1] is MiaPaca-2 (expressing KRAS G12C mutant). The assay is described as follows: Proliferation Assay (Cell Viability Assay). The conditions noted are these: Homo sapiens, MIA PaCa-2. Type of assay: cell-based. The essentials:
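After 2–4 days' exposure at 37 °C, 5% CO2 to a single 10 μM final concentration or a dilution series (IC50), percent proliferation inhibition was derived from CellTiter 96 Aqueous One viability readings. The medium contained 0.3% DMSO and 10% FBS. KRAS G12C MiaPaca-2 cells were plated at 2000–5000/well the day before.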

[2] abbreviates: read-out: Proliferation in MiaPaca-2: IC50.

As to `CO[C@H]1C[C@@H](Nc2nc(-c3nccn3C)nn3cc(-c4ccncc4)c(-c4ccccc4)c23)C1` [Compound 198, N-((1s,3s)-3-Methoxycyclobutyl)-2-(1-methyl-1H-imidazol-2-yl)-5-phenyl-6-(pyridin-4-yl)pyrrolo[2,1-f][1,2,4]triazin-4-amine], the “% inh of Erk1/2 phosphorylation in Panc-1” value (from here on “% inh”) in the assay with Erk1/2 phosphorylation is listed as “D* (85-100% activation)”. Further, in assay [1] (setting [2]), the IC50 is above 1000 nM.

As for `CO[C@H]1CC[C@H](Nc2nc(-c3nccn3C)nn3cc(-c4ccn(C)n4)c(C(=O)NCCN4CCOCC4)c23)C1` (racemic) [Compound 185, rac 4-(((1S,3S)-3-methoxycyclo-pentyl)amino)-2-(1-methyl-1H-imidazol-2-yl)-6-(1-methyl-1H-pyrazol-3-yl)-N-(2-morpholino-ethyl)pyrrolo[2,1-f][1,2,4]triazine-5-carboxamide], in the assay on Erk1/2 phosphorylation, the “% inh” value is listed as “B (26-49% inhibition)”. Moreover, the IC50 in assay [1] (setting [2]) is above 1000 nM.

`COc1ccnc(Nc2nc(-c3nccn3C)nn3cc(-c4ccn(CCN)n4)c(C)c23)c1` [Compound 187, 6-(1-(2-Aminoethyl)-1H-pyrazol-3-yl)-N-(4-methoxypyridin-2-yl)-5-methyl-2-(1-methyl-1H-imidazol-2-yl)pyrrolo[2,1-f][1,2,4]triazin-4-amine]: in the assay on Erk1/2 phosphorylation, the “% inh” value was “A (1-25% inhibition)”. Also, the IC50 in assay [1] (setting [2]) was above 1000 nM.

With `CO[C@H]1C[C@H](S(=O)(=O)Nc2nc(-c3nccn3C)nn3cc(-c4ccccc4)c(-c4ccccc4)c23)C1` [Compound 214, (1r,3r)-3-Methoxy-N-(2-(1-methyl-1H-imidazol-2-yl)-5,6-diphenylpyrrolo[2,1-f][1,2,4]triazin-4-yl)cyclobutane-1-sulfonamide], the “% inh” value in the assay with Erk1/2 phosphorylation is reported as “A* (1-25% activation)”. Also, in assay [1] (setting [2]), the IC50 was above 1000 nM.

Turning to `Cc1c(-c2ccn(C)n2)cn2nc(-c3nccn3C)nc(Nc3cc(C(C)(C)O)ccn3)c12` [Compound 240, 2-(2-((5-Methyl-2-(1-methyl-1H-imidazol-2-yl)-6-(1-methyl-1H-pyrazol-3-yl)pyrrolo[2,1-f][1,2,4]triazin-4-yl)amino)pyridin-4-yl)propan-2-ol], in the assay with Erk1/2 phosphorylation, the “% inh” value is on record as “A* (1-25% activation)”. Moreover, the IC50 in assay [1] (setting [2]) was below 150 nM.

Turning to `COc1cc(Nc2nc(-c3nccn3C)nn3cc(-c4ccn(C)n4)c(C)c23)ncc1C` [Compound 235, N-(4-Methoxy-5-methylpyridin-2-yl)-5-methyl-2-(1-methyl-1H-imidazol-2-yl)-6-(1-methyl-1H-pyrazol-3-yl)pyrrolo[2,1-f][1,2,4]triazin-4-amine], the “% inh” value with Erk1/2 phosphorylation is “B* (26-49% activation)”. Moreover, the IC50 in assay [1] (Proliferation assay, MiaPaca-2, read-out: MiaPaca-2 IC50 (nM) Pancreatic) was 1 to 10 nM; in assay [1] (setting [2]), below 150 nM.

Take `Cc1c(-c2ccn(C)n2)cn2nc(-c3nccn3C)nc(Nc3ccc(OC(F)(F)F)cn3)c12` [Compound 232, 5-Methyl-2-(1-methyl-1H-imidazol-2-yl)-6-(1-methyl-1H-pyrazol-3-yl)-N-(5-(trifluoro-methoxy)pyridin-2-yl)pyrrolo[2,1-f][1,2,4]triazin-4-amine]: the “% inh” value in the assay on Erk1/2 phosphorylation is “B* (26-49% activation)”. Besides, the IC50 in assay [1] (setting [2]) was below 150 nM.

Consider `Cn1ccnc1-c1nc(NS(C)(=O)=O)c2c(-c3ccccc3)c(-c3ccccc3)cn2n1` [Compound 212, N-(2-(1-Methyl-1H-imidazol-2-yl)-5,6-diphenylpyrrolo[2,1-f][1,2,4]triazin-4-yl) methanesulfonamide], for which the “% inh” value in the assay with Erk1/2 phosphorylation is “B* (26-49% activation)”. Also, in assay [1] (setting [2]), the IC50 was above 1000 nM.

Regarding `CCNC(=O)c1c(-c2ccn(C)n2)cn2nc(-c3nccn3C)nc(Nc3cc(OC)ccn3)c12` [Compound 173, N-Ethyl-4-((4-methoxypyridin-2-yl)amino)-2-(1-methyl-1H-imidazol-2-yl)-6-(1-methyl-1H-pyrazol-3-yl)pyrrolo[2,1-f][1,2,4]triazine-5-carboxamide], the “% inh” value in the assay on Erk1/2 phosphorylation is listed as “C (50-84% inhibition)”. For the same compound, the IC50 in assay [1] (setting [2]) was 510 to 1000 nM.

Turning to `CCOc1ccc(Nc2nc(-c3nccn3C)nn3cc(-c4ccn(C)n4)c(C)c23)nc1` [Compound 229, N-(5-Ethoxypyridin-2-yl)-5-methyl-2-(1-methyl-1H-imidazol-2-yl)-6-(1-methyl-1H-pyrazol-3-yl)pyrrolo[2,1-f][1,2,4]triazin-4-amine], in the assay on Erk1/2 phosphorylation, the “% inh” value is recorded as “A (1-25% inhibition)”. Besides, the IC50 in assay [1] (setting [2]) lay within 150 to 500 nM.

Take `Cc1c(-c2ccn(C)n2)cn2nc(-c3nccn3C)nc(Nc3ccc(C(C)(C)O)cn3)c12` [Compound 241, 2-(6-((5-Methyl-2-(1-methyl-1H-imidazol-2-yl)-6-(1-methyl-1H-pyrazol-3-yl)pyrrolo[2,1-f][1,2,4]triazin-4-yl)amino)pyridin-3-yl)propan-2-ol]: the “% inh” value with Erk1/2 phosphorylation is on record as “D* (85-100% activation)”. For the same compound, the IC50 in assay [1] (setting [2]) is above 1000 nM.

On to `CO[C@H]1C[C@H](Nc2nc(-c3nccn3C)nn3cc(-c4ccncc4)c(-c4ccccc4)c23)C1` [Compound 199, N-((1r,3r)-3-Methoxycyclobutyl)-2-(1-methyl-1H-imidazol-2-yl)-5-phenyl-6-(pyridin-4-yl)pyrrolo[2,1-f][1,2,4]triazin-4-amine], for which the “% inh” value in the assay with Erk1/2 phosphorylation is “D* (85-100% activation)”. Besides, the IC50 in assay [1] (setting [2]) is above 1000 nM.

As to `COc1ccnc(Oc2nc(-c3nccn3C)nn3cc(-c4ccn(C)n4)c(C)c23)c1` [Compound 220, 4-((4-Methoxypyridin-2-yl)oxy)-5-methyl-2-(1-methyl-1H-imidazol-2-yl)-6-(1-methyl-1H-pyrazol-3-yl)pyrrolo[2,1-f][1,2,4]triazine], the “% inh” value in the assay on Erk1/2 phosphorylation is recorded as “A (1-25% inhibition)”. Also, the IC50 in assay [1] (setting [2]) was above 1000 nM.

Regarding `Cc1ccc(Nc2nc(-c3nccn3C)nn3cc(-c4ccn(C)n4)c(C)c23)nc1` [Compound 226, 5-Methyl-2-(1-methyl-1H-imidazol-2-yl)-6-(1-methyl-1H-pyrazol-3-yl)-N-(5-methylpyridin-2-yl)pyrrolo[2,1-f][1,2,4]triazin-4-amine], in the assay with Erk1/2 phosphorylation, the “% inh” value is recorded as “A* (1-25% activation)”. The IC50 in assay [1] (setting [2]) was below 150 nM.

As for `CO[C@H]1C[C@H](Nc2nc(-c3nccn3C)nn3cc(-c4cccc5c4CCO5)c(-c4ccccc4)c23)C1` [Compound 210, 6-(2,3-Dihydrobenzofuran-4-yl)-N-((1r,3r)-3-methoxycyclobutyl)-2-(1-methyl-1H-imidazol-2-yl)-5-phenylpyrrolo[2,1-f][1,2,4]triazin-4-amine], in the assay with Erk1/2 phosphorylation, the “% inh” value is listed as “D (85-100% inhibition)”. In addition, the IC50 in assay [1] (setting [2]) was 510 to 1000 nM.

Take `Cc1c(-c2ccn(C)n2)cn2nc(-c3nccn3C)nc(Nc3ccc(N4CCCC4)cn3)c12` [Compound 228, 5-Methyl-2-(1-methyl-1H-imidazol-2-yl)-6-(1-methyl-1H-pyrazol-3-yl)-N-(5-(pyrrolidin-1-yl)pyridin-2-yl)pyrrolo[2,1-f][1,2,4]triazin-4-amine]: the “% inh” value in the assay with Erk1/2 phosphorylation was “A* (1-25% activation)”. The IC50 in assay [1] (setting [2]) is below 150 nM.

As for `COCCNc1nc(-c2nccn2C)nn2cc(-c3cccc(OC)c3Cl)c(C)c12` [Compound 16, 6-(2-Chloro-3-methoxyphenyl)-N-(2-methoxyethyl)-5-methyl-2-(1-methyl-1H-imidazol-2-yl)pyrrolo[2,1-f][1,2,4]triazin-4-amine], the “% inh” value with Erk1/2 phosphorylation is “A (1-25% inhibition)”. Also, the IC50 in assay [1] (setting [2]) was above 1000 nM.

In the case of `Cc1c(-c2ccn(C)n2)cn2nc(-c3nccn3C)nc(Nc3ccc(N(C)C)cn3)c12` [Compound 227, N5,N5-Dimethyl-N2-(5-methyl-2-(1-methyl-1H-imidazol-2-yl)-6-(1-methyl-1H-pyrazol-3-yl)pyrrolo[2,1-f][1,2,4]triazin-4-yl)pyridine-2,5-diamine], the “% inh” value in the assay on Erk1/2 phosphorylation was “C* (46-84% activation)”. In addition, the IC50 in assay [1] (setting [2]) is below 150 nM.

With `COc1cc(Nc2nc(-c3nccn3C)nn3cc(-c4ccn(C)n4)c(C)c23)ncc1F` [Compound 237, N-(5-Fluoro-4-methoxypyridin-2-yl)-5-methyl-2-(1-methyl-1H-imidazol-2-yl)-6-(1-methyl-1H-pyrazol-3-yl)pyrrolo[2,1-f][1,2,4]triazin-4-amine], the “% inh” value in the assay on Erk1/2 phosphorylation is listed as 0 (0% inhibition). The IC50 in assay [1] (setting [2]) was below 150 nM.

In the case of `Cc1c(-c2ccn(C)n2)cn2nc(-c3nccn3C)nc(Nc3ccc(OCC(F)(F)F)cn3)c12` [Compound 230, 5-Methyl-2-(1-methyl-1H-imidazol-2-yl)-6-(1-methyl-1H-pyrazol-3-yl)-N-(5-(2,2,2-trifluoroethoxy)pyridin-2-yl)pyrrolo[2,1-f][1,2,4]triazin-4-amine], the “% inh” value in the assay with Erk1/2 phosphorylation was “D* (85-100% activation)”. Further, the IC50 in assay [1] (setting [2]) is below 150 nM.

With `Cc1c(-c2ccn(C)n2)cn2nc(-c3nccn3C)nc(Nc3ccc(C(F)F)cn3)c12` [Compound 234, N-(5-(Difluoromethyl)pyridin-2-yl)-5-methyl-2-(1-methyl-1H-imidazol-2-yl)-6-(1-methyl-1H-pyrazol-3-yl)pyrrolo[2,1-f][1,2,4]triazin-4-amine], the “% inh” value with Erk1/2 phosphorylation is reported as “D* (85-100% activation)”. The IC50 in assay [1] (setting [2]) is below 150 nM.

Consider `COc1ccnc(Nc2nc(-c3nccn3C)nn3cc(-c4ccn(C)n4)c(C(=O)NC4CC4)c23)c1` [Compound 175, N-Cyclopropyl-4-((4-methoxypyridin-2-yl)amino)-2-(1-methyl-1H-imidazol-2-yl)-6-(1-methyl-1H-pyrazol-3-yl)pyrrolo[2,1-f][1,2,4]triazine-5-carboxamide], for which, in the assay with Erk1/2 phosphorylation, the “% inh” value is “D* (85-100% activation)”. Further, the IC50 in assay [1] (setting [2]) fell in the range of 150 to 500 nM.
